The test system of experiment [1] is primary hepatocytes (cytosolic and mitochondrial calcium). As to the kind of experiment: Ca2+ imaging in isolated hepatocytes. Format: cell-based, mouse. The protocol:
Primary hepatocytes were isolated by the Yale Liver Center from wild-type and InsP3R-I KO mice and plated on glass coverslips coated with Rat Collagen Type I. Cells were loaded with the ratiometric cytosolic Ca^2+ indicator dye, Fura-2 AM (Thermo Fisher Scientific), or the mitochondrial matrix-targeted Ca^2+ indicator, Rhod-2 AM (Thermo Fisher Scientific) according to manufacturer's instructions. Ca^2+ imaging experiments were performed in 4-(2-hydroxyethyl)-1-piperazine ethanesulfonic acid (HEPES)-buffered balanced salt solution (25 mM HEPES, 121 mM NaCl, 4.7 mM KCl, 1.2 mM MgSO4, 1.2 mM KPO4, 5 mM NaHCO3, 2.0 mM CaCl2, 10 mM Glucose, pH 7.4) with or without the PKA inhibitor H-89 (25 μM) two to five hr following initial plating. Coverslips were transferred to a custom-built perfusion chamber on the stage of an inverted microscope connected to a RedShirtImaging camera (Olympus Life Science, Waltham, Mass.). […] For cytoplasmic calcium readings, changes in fluorescence (F, λ=340) were normalized by the initial fluorescence (F0, λ=380) and were expressed as F/F0. […] Individual cell responses were normalized to their respective baseline Rhod-2 AM fluorescence values, and changes were expressed as Normalized Δ Fluorescence.

Experiment [2] concerns primary mouse hepatocytes. Briefly: In vitro glucose production, VPC and lipolysis in isolated hepatocytes. It is filed as cell-based. The method in brief:
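Primary mouse hepatocytes were plated and cultured overnight in low-glucose DMEM, with 10% FBS for glucose production or serum-free 0.5% BSA medium for lipolysis. Media were then collected after 8 hr at 37° C for glucose, NEFA and glycerol, and VPC was derived as the PINTA VPC/VEGP ratio × glucose production. Agents were present through the 8-hr assay, and values were normalized to total protein and expressed as fold change vs vehicle.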

The target of experiment [3] is glucocorticoid receptor (Rattus norvegicus, UniProt P06536). Here is the method: 8, 16, and 48 hr fasted rats were injected with a small molecule inhibitor of glycogen phosphorylase, 1-(3-(3-(2-Chloro-4,5-difluorobenzoyl) ureido)-4-methoxyphenyl)-3-methylurea (Sigma #361515; 5 mg/kg IV) and a tracer infusion of [2,3,3,3-^2H4]alanine ([…]prime for 5 min and […] continuous) and [3-^3H]glucose (0.3 μCi/min prime for 5 min and 0.3 μCi/min continuous) as well as [^13C4] β-hydroxybutyrate, [1,1,2,3,3-^2H5]glycerol, and [^13C16]palmitate at the rates listed in Table 9, for 120 min. Blood samples were obtained before (time zero) and 120 min after treatment with the glycogen phosphorylase inhibitor for measurement of turnover rates and plasma hormone/substrate concentrations. Hepatic acetyl-CoA content was altered by treatment with a CPT-1 inhibitor (etomoxir, 8 mg/kg) or an ATGL inhibitor (atglistatin, […]) in 0, 6, 16, and 48 hr fasted rats. Both agents were solubilized by suspending the drug in 4% ethanol/96% normal saline, heating to 60° C., and sonicating, and were cooled to room temperature before they were injected intraperitoneally. […] In these animals plasma glucose concentrations were measured every 15 minutes and a variable infusion of 20% glucose (Pfizer Hospira, Lake Forest, Ill.) was used to maintain plasma glucose concentrations ˜3.6-3.7 mM. The physiologic role of glucocorticoids was assessed in 6 and 48 hr fasted rats by treatment with a glucocorticoid receptor antagonist, mifepristone. Following a 2 hr tracer infusion at the rates described above to assess fatty acid, glycerol, glucose, and β-hydroxybutyrate turnover, rats were injected with mifepristone (40 mg/kg) IV. The tracer infusion was continued and the tracer of each of the above substrates was again measured 2 hr after treatment with mifepristone.
All whole-body substrate turnover rates were calculated using the equation Turnover=([Tracer APE/Plasma APE]−1)*Infusion rate, where APE designates the atom percent enrichment measured by mass spectrometry as described below (Biochemical Analysis). All chemicals used for flux analysis were obtained from SIGMA. Turnover of glucose, glycerol, and β-hydroxybutyrate were determined by gas chromatography-mass spectrometry (GC-MS). Briefly, both glucose and glycerol were deprotonized with 5 volumes of methanol, derivitized with 3 volumes of 1:1 acetic anhydride:pyridine, heated to 65° C. for 20 min, and 1 volume of methanol was added, then GC-MS was used in CI mode to measure glucose enrichment and EI mode to measure glycerol enrichment, with turnover calculated using the equation above. β-Hydroxybutyrate was deprotonized with 5 volumes of methanol and derivitized with 3 volumes of n-butanol 4N HCl, after which the samples were heated to 65° C. for 60 min, evaporated under N2 gas, and re-suspended in […] of trifluoroacetic acid:methylene chloride (1:7). Fatty acid turnover was measured by determining the plasma palmitate enrichment by GC-MS. Samples were prepared for measurements of palmitate enrichment by evaporating […] plasma, dissolving in […] 1:1 chloroform:methanol and derivitizing with […] boron trifluoride/methanol, then heating to 100° C. for 5 min, adding 2 mL pentane and 1 mL water, and centrifuging at low speed for 5 min. […] Alanine turnover was determined in rats infused with [2,3,3,3-^2H4]alanine by preparing samples to measure alanine enrichment by GC/MS (CI mode) using the same protocol as was employed to measure β-hydroxybutyrate enrichment.

[4] abbreviates: WT hepatocytes, 100 nM glucagon, 8 hr.
Where [5] appears, read: hepatocytes, 100 nM vasopressin.
[6] abbreviates: 48-hr fasted rats, 40 mg/kg IV, 2 hr.

glucocorticoid receptor, sequence (P06536 whole entry, the tested form may be a part): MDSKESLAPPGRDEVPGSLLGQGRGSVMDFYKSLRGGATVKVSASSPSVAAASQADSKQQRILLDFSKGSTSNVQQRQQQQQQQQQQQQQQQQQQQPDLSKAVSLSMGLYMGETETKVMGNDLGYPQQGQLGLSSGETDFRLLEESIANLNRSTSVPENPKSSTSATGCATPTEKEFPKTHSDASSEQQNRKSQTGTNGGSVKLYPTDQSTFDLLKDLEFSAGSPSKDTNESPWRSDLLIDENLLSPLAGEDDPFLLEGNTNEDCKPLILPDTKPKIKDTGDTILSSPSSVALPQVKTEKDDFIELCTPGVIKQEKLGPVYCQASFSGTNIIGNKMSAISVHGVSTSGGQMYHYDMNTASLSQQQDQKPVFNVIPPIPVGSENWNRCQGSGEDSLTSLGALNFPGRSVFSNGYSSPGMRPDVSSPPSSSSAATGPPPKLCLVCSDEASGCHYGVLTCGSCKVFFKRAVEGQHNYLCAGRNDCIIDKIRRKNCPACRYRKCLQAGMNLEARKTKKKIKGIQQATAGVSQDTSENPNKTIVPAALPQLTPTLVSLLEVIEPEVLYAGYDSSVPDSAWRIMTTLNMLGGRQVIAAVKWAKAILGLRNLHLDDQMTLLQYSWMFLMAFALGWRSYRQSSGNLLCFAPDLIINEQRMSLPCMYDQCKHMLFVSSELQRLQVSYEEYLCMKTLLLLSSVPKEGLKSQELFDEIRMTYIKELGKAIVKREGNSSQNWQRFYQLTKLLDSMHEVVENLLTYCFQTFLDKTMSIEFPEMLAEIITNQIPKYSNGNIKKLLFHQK

Consider `O=S(=O)(NCCNC/C=C/c1ccc(Br)cc1)c1cccc2cnccc12` [H-89, H-89 dichloroacetate hydrate], for which the “calcium response to glucagon” value in experiment [1] (WT hepatocytes, H-89 25 μM) is reported as “abrogated”. In experiment [2] (setting [4]), the “glucagon-stimulated VPC flux” value is “abrogated” and the glucagon-stimulated glucose production result is listed as “abrogated”. The “effect of glucagon to stimulate intrahepatic lipolysis” value in experiment [2] (isolated hepatocytes) was “abrogated”.
`NC(=O)CC[C@@H]1NC(=O)[C@H](Cc2ccccc2)NC(=O)[C@H](Cc2ccc(O)cc2)NC(=O)[C@@H](N)CSSC[C@@H](C(=O)N2CCC[C@H]2C(=O)N[C@@H](CCCN=C(N)N)C(=O)NCC(N)=O)NC(=O)[C@H](CC(N)=O)NC1=O` [vasopressin]: the “mitochondrial and cytosolic calcium signaling” value in experiment [1] (isolated WT hepatocytes (not InsP3R-I KO), 100 nM glucagon or 50 nM vasopressin) is given as “almost identical increase”. In experiment [2] (setting [5]), the “VPC (effect of glucagon)” value is listed as “recapitulated” and the “glucose production (effect of glucagon)” value is “recapitulated”. Moreover, the “intrahepatic lipolysis (effect of glucagon)” value in experiment [2] (hepatocytes, vasopressin) is reported as “recapitulated”.
As for `CC#C[C@]1(O)CC[C@H]2[C@@H]3CCC4=CC(=O)CCC4=C3[C@@H](c3ccc(N(C)C)cc3)C[C@@]21C` [mifepristone], the “reduction in plasma leptin concentrations” value in experiment [3] (48-hr fasted rats) was 60%. Further, in experiment [3] (setting [6]), the WAT lipolysis result is “decreased”, the ketogenesis entry is recorded as “decreased”, the plasma glucose concentrations entry is given as “decreased” and the whole-body glucose turnover result was “decreased”. Also, the “WAT lipolysis, whole body glucose turnover, or plasma glucose or insulin concentrations” value in experiment [3] (recently fed rats (6 hr)) is “no impact”.

For the origin of these results see patent US11484608B2, “Non-invasive assessment of hepatic mitochondrial metabolism by positional isotopomer NMR tracer analysis (PINTA)” (YALE UNIVERSITY, priority 2017, dated 2022).
